Converted amounts (≈) assume the structure as drawn. Where a name gives a salt, the structure may show the parent alone.
Experiments:
[1] = Solubility of each hydrochloride in purified water; format: physicochemical
Experimental: A corresponding camptothecin-21-(2-dimethylamino) ethylamide derivative (100-200 mg) was added with an aqueous 0.1 N HCl solution (1.05 eq.) and dissolved, if necessary, further by adding purified water. The solution was filtered using MILLEX-GV ([…] Filter Unit), and the filtrate was lyophilized to give the desired hydrochloride.
Table 1: Solubility of each hydrochloride in purified water

mouse leukemia L1210 = assay: Anti-tumor activity: life prolonging effect in mice transplanted intraperitoneally with mouse leukemia L1210 (T/C%); format: in vivo; settings: for Anti-tumor activity (T/C%): i.p. day 1, 5 and 9; for Anti-tumor activity: fraction in parentheses after T/C% (meaning not given): group of six mice
Experimental: 5×10^5 cells of mouse leukemia L1210 were transplanted intraperitoneally to a group of six female CDP1 mice (7 weeks old, body weight 17-19 g). A test substance was administered intraperitoneally on day 1, 5 and 9, and its life prolonging effect was observed. In a case of the administration of a test substance as an acid addition salt, it was dissolved in purified water. The total administration amount was 1.56-400 mg/kg. The anti-tumor activity was expressed by the value (T/C%) in which the ratio of the mean survival days of a drug administered group (T) to the mean survival days of a not administered group (C) is multiplied by 100.

[2] = Stability test in water at each pH (phosphate buffer, HPLC); format: physicochemical; settings: for Amount of the compound in test solution: room temperature (about 26° C.)
Experimental: 1) Preparation of calibration curve:
1.05 mg of the compound 1 and 1.10 mg of the compound A (Note) were measured, dissolved in acetonitrile 10 ml to give a standard solution. 20 μl of the standard solution was tested by HPLC method (procedure condition 1). The peak area of the compound 1 and the compound A (Note), which is obtained from the chromatograph of the standard solution is measured by an automatic integration method, and the obtained area is plotted against an amount of the compound 1 and the compound A (2.1 μg and 2.2 μg) by 20 μl to prepare a calibration curve.
[HPLC method, procedure condition 1]
Column: Inertsil ODS-3 (5-250), 40 deg.
Mobile phase: 0.01 M potassium dihydrogenphosphate-acetonitrile (3:1)
Detection: UV absorptiometer (254 nm)
About 1 mg (×3) of the compound 1 were measured, dissolved adding a phosphate buffer 10 ml of pH 10.0, 7.0 or 5.4, stirred at room temperature (about 26° C.) to make a test solution. As to each 20 μl of the test solution at the time of dissolution, 3 hr later and 24 hr later, the tests were carried out by the HPLC method (procedure condition 1). The amounts of the compound 1 were measured from the obtained area. The amounts of the compound A in each pH were measured.
The amounts (μg/ml) of the compound 1 and the compound A at the time of dissolution, 3 hr later and 24 hr later in each pH are shown in Table 7.

## CCNC(=O)OCc1c([C@@](O)(CC)C(=O)NCCN(C)C)cc2n(c1=O)Cc1c-2nc2ccccc2c1CC [Compound 2, 7-Ethyl-17-ethylcarbamoyloxycamptothecin-21-(2-dimethylamino)ethylamide]
[1]
  solubility: ~14 mg/mL (≈ 26.1 mM)

## CCCNC(=O)OCc1c([C@@](O)(CC)C(=O)NCCN(C)C)cc2n(c1=O)Cc1c-2nc2ccccc2c1CC [Compound 3, 7-Ethyl-17-n-propylcarbamoyloxycamptothecin-21-(2-dimethylamino)ethylamide]
Mouse leukemia L1210; Table 2, total dose 3.13 mg/kg
  Anti-tumor activity (T/C%): 100%
Mouse leukemia L1210; Table 2, total dose 6.25 mg/kg
  Anti-tumor activity (T/C%): 100%
Mouse leukemia L1210; Table 2, total dose 12.5 mg/kg
  Anti-tumor activity (T/C%): 139%
Mouse leukemia L1210; Table 2, total dose 25 mg/kg
  Anti-tumor activity (T/C%): 142%
Mouse leukemia L1210; Table 2, total dose 50 mg/kg
  Anti-tumor activity (T/C%): 147%
Mouse leukemia L1210; Table 2, total dose 100 mg/kg
  Anti-tumor activity (T/C%): 147%
Mouse leukemia L1210; Table 2, total dose 200 mg/kg
  Anti-tumor activity (T/C%): 147%
[1]
  solubility: ~11 mg/mL (≈ 20 mM)

## CCc1c2c(nc3ccccc13)-c1cc([C@@](O)(CC)C(=O)NCCN(C)C)c(COC(=O)NC(C)C)c(=O)n1C2 [Compound 4, 7-Ethyl-17-iso-propylcarbamoyloxycamptothecin-21-(2-dimethylamino)ethylamide]
Mouse leukemia L1210; Table 4, total dose 3.13 mg/kg
  Anti-tumor activity (T/C%): 121%
Mouse leukemia L1210; Table 4, total dose 6.25 mg/kg
  Anti-tumor activity (T/C%): 123%
Mouse leukemia L1210; Table 4, total dose 12.5 mg/kg
  Anti-tumor activity (T/C%): 121%
Mouse leukemia L1210; Table 4, total dose 25 mg/kg
  Anti-tumor activity (T/C%): 123%
Mouse leukemia L1210; Table 4, total dose 50 mg/kg
  Anti-tumor activity (T/C%): 149%
Mouse leukemia L1210; Table 4, total dose 100 mg/kg
  Anti-tumor activity (T/C%): 205%
Mouse leukemia L1210; Table 4, total dose 200 mg/kg
  Anti-tumor activity: fraction in parentheses after T/C% (meaning not given): 1/6
  Anti-tumor activity (T/C%): 323%
[1]
  solubility: ~50 mg/mL (≈ 91 mM)

## CCCCNC(=O)OCc1c([C@@](O)(CC)C(=O)NCCN(C)C)cc2n(c1=O)Cc1c-2nc2ccccc2c1CC [Compound 5, 17-n-Butylcarbamoyloxy-7-ethylcamptothecin-21-(2-dimethylamino)ethylamide]
[1]
  solubility: ~10 mg/mL (≈ 17.7 mM)

## CCc1c2c(nc3ccccc13)-c1cc([C@@](O)(CC)C(=O)NCCN(C)C)c(COC(=O)NC3CCCCC3)c(=O)n1C2 [Compound 6, 7-Ethyl-17-c-hexylcarbamoyloxycamptothecin-21-(2-dimethylamino)ethylamide]
[1]
  solubility: ~50 mg/mL (≈ 84.8 mM)

## CCc1c2c(nc3ccccc13)-c1cc([C@@](O)(CC)C(=O)NCCN(C)C)c(COC(=O)Nc3ccccc3)c(=O)n1C2 [Compound 7, 7-Ethyl-17-phenylcarbamoyloxycamptothecin-21-(2-dimethylamino)ethylamide]
[1]
  solubility: ~15 mg/mL (≈ 25.7 mM)

## CCc1c2c(nc3ccccc13)-c1cc([C@@](O)(CC)C(=O)NCCN(C)C)c(COC(=O)Nc3ccccc3F)c(=O)n1C2 [Compound 8, 7-Ethyl-17-(2-fluorophenylcarbamoyloxy)-camptothecin-21-(2-dimethylamino)ethylamide]
[1]
  solubility: ~11 mg/mL (≈ 18.3 mM)

## CCc1c2c(nc3ccccc13)-c1cc([C@@](O)(CC)C(=O)NCCN(C)C)c(COC(=O)Nc3cccc(F)c3)c(=O)n1C2 [Compound 9, 7-Ethyl-17-(3-fluorophenylcarbamoyloxy)-camptothecin-21-(2-dimethylamino)ethylamide]
[1]
  solubility: ~28 mg/mL (≈ 46.5 mM)

## CCc1c2c(nc3ccccc13)-c1cc([C@@](O)(CC)C(=O)NCCN(C)C)c(COC(=O)Nc3cccc4ccccc34)c(=O)n1C2 [Compound 11, 7-Ethyl-17-(1-naphthylcarbamoyloxy)-camptothecin-21-(2-dimethylamino)ethylamide]
[1]
  solubility: ~5 mg/mL (≈ 7.89 mM)

## CCc1c2c(nc3ccccc13)-c1cc([C@@](O)(CC)C(=O)NCCN(C)C)c(COC(=O)N(CC)CC)c(=O)n1C2 [Compound 15, 17-Diethylcarbamoyloxy-7-ethylcamptothecin-21-(2-dimethylamino)ethylamide]
[1]
  solubility: ~53 mg/mL (≈ 94 mM)

## CCc1c2c(nc3ccccc13)-c1cc([C@@](O)(CC)C(=O)NCCN(C)C)c(COC(=O)N3CCN(CC(=O)NC(C)C)CC3)c(=O)n1C2 [Compound 16, 7-Ethyl-17-(4-isopropylaminocarbonylmethyl-piperazino)-carbamoyloxy-camptothecin-21-(2-dimethylamino)ethylamide]
[1]
  solubility: ≥ 33 mg/mL

## CCc1c2c(nc3ccccc13)-c1cc([C@@](O)(CC)C(=O)NCCN(C)C)c(COC(=O)OC)c(=O)n1C2 [Compound 18, 7-Ethyl-17-methoxycarbonyloxycamptothecin-21-(2-dimethylamino)ethylamide]
[1]
  solubility: ≥ 50 mg/mL

## CCOC(=O)OCc1c([C@@](O)(CC)C(=O)NCCN(C)C)cc2n(c1=O)Cc1c-2nc2ccccc2c1CC [Compound 19, 7-Ethyl-17-ethoxycarbonyloxycamptothecin-21-(2-dimethylamino)ethylamide]
[1]
  solubility: ≥ 52 mg/mL

## CCCOC(=O)OCc1c([C@@](O)(CC)C(=O)NCCN(C)C)cc2n(c1=O)Cc1c-2nc2ccccc2c1CC [Compound 20, 7-Ethyl-17-n-propoxycarbonyloxycamptothecin-21-(2-dimethylamino)ethylamide]
[1]
  solubility: ≥ 52 mg/mL

## CCCCOC(=O)OCc1c([C@@](O)(CC)C(=O)NCCN(C)C)cc2n(c1=O)Cc1c-2nc2ccccc2c1CC [Compound 21, 17-n-Butoxycarbonyloxy-7-ethyl-camptothecin-21-(2l-dimethylamino)ethylamide]
[1]
  solubility: ≥ 54 mg/mL

## CCc1c2c(nc3ccccc13)-c1cc([C@@](O)(CC)C(=O)NCCN(C)C)c(COC(C)=O)c(=O)n1C2 [Compound A, 7-Ethyl-17-acetoxycamptothecin-21-(2-dimethylamino)ethylamide hydrochloride, reference compound]
[2]; pH 5.4, 3 hr later
  Amount of the compound in test solution: 126 µg/mL
[2]; pH 5.4, 24 hr later
  Amount of the compound in test solution: 124 µg/mL
[2]; pH 5.4, at the time of dissolution
  Amount of the compound in test solution: 126 µg/mL
[2]; pH 7.0, 3 hr later
  Amount of the compound in test solution: 110 µg/mL
[2]; pH 7.0, 24 hr later
  Amount of the compound in test solution: 107 µg/mL
[2]; pH 7.0, at the time of dissolution
  Amount of the compound in test solution: 110 µg/mL
[2]; pH 10.0, 3 hr later
  Amount of the compound in test solution: 79 µg/mL
[2]; pH 10.0, 24 hr later
  Amount of the compound in test solution: 16 µg/mL
[2]; pH 10.0, at the time of dissolution
  Amount of the compound in test solution: 102 µg/mL
[2]; phosphate buffer, pH 10.0, after 24 hr, read-out: hydrolyzed in the aqueous solution
  degraded at 24 h: 84%

## CCc1c2c(nc3ccccc13)-c1cc(C(O)(CC)C(=O)[O-])c(CO)c(=O)n1C2.[Na+] (stereo not shown) [Reference Compound, 7-ethylcamptothecin sodium salt, reference compound]
Mouse leukemia L1210; Table 2, total dose 3.13 mg/kg
  Anti-tumor activity (T/C%): 129%
Mouse leukemia L1210; Table 2, total dose 6.25 mg/kg
  Anti-tumor activity (T/C%): 142%
Mouse leukemia L1210; Table 2, total dose 12.5 mg/kg
  Anti-tumor activity (T/C%): 153%
Mouse leukemia L1210; Table 2, total dose 25 mg/kg
  Anti-tumor activity (T/C%): 211%
Mouse leukemia L1210; Table 2, total dose 50 mg/kg
  Anti-tumor activity (T/C%): 266%
Mouse leukemia L1210; Table 2, total dose 100 mg/kg
  Anti-tumor activity: fraction in parentheses after T/C% (meaning not given): 2/6
  Anti-tumor activity (T/C%): 339%
Mouse leukemia L1210; Table 2, total dose 200 mg/kg
  Anti-tumor activity: fraction in parentheses after T/C% (meaning not given): 1/6
  Anti-tumor activity (T/C%): 303%
Mouse leukemia L1210; Table 4, total dose 3.13 mg/kg
  Anti-tumor activity (T/C%): 126%
Mouse leukemia L1210; Table 4, total dose 6.25 mg/kg
  Anti-tumor activity (T/C%): 146%
Mouse leukemia L1210; Table 4, total dose 12.5 mg/kg
  Anti-tumor activity (T/C%): 151%
Mouse leukemia L1210; Table 4, total dose 25 mg/kg
  Anti-tumor activity (T/C%): 215%
Mouse leukemia L1210; Table 4, total dose 50 mg/kg
  Anti-tumor activity (T/C%): 249%
Mouse leukemia L1210; Table 4, total dose 100 mg/kg
  Anti-tumor activity: fraction in parentheses after T/C% (meaning not given): 4/6
  Anti-tumor activity (T/C%): 513%
Mouse leukemia L1210; Table 4, total dose 200 mg/kg
  Anti-tumor activity: fraction in parentheses after T/C% (meaning not given): 1/6
  Anti-tumor activity (T/C%): 362%

From patent US6310210A, “Camptothecin derivatives” (Kabushiki Kaisha Yakult Honsha, priority 1997, dated 2001)
